Experimental data reported in PubChem BioAssay (NCI).
Where “and” joins values, the source holds several entries; their conditions need not be identical. Equal values may be shown once.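 1) Cells in 96-well plates. 2) Compound, 48 h, 5 concentrations. 3) Linear interpolation between surrounding doses. 4) Unreached endpoint = highest concentration. Here, GI50 denotes the concentration required for 50% inhibition of growth. At the TGI there is no net growth.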

Tests used:
Assay in all cases: NCI tumour cell line growth inhibition, 48 h
[1] = test system: MDA-MB-231 breast
[2] = test system: NCI-H23 lung
[3] = test system: 786-0 renal
[4] = test system: KM12 colon
[5] = test system: NCI-H460 lung
[6] = test system: SF-268 CNS
[7] = test system: OVCAR-8 ovarian
[8] = test system: DU-145 prostate
[9] = test system: DMS 114 small cell lung
[10] = test system: HOP-18 NSCLC
[11] = test system: KM20L2 colon
[12] = test system: DLD-1 colon

Structure (SMILES): CCN(CC(=O)O)C(=O)c1cccnc1
- TGI [1]: > 100 µM
- TGI [2]: > 100 µM
- TGI [3]: > 100 µM
- TGI [4]: > 100 µM
- TGI [5]: > 100 µM
- TGI [6]: > 100 µM
- TGI [7]: > 100 µM
- TGI [8]: > 100 µM

Structure (SMILES): COc1cc2c(ccc3c4cc(OC)c(OC)cc4c[n+](C)c23)cc1O
- TGI [2]: 68.3 µM
- TGI [9]: 74.7 µM
- TGI [4]: > 75 µM
- TGI [10]: > 75 µM
- TGI [5]: > 75 µM
- TGI [6]: 6.09 µM
- TGI [11]: > 75 µM
- TGI [7]: 62 µM
- TGI [12]: > 75 µM

Structure (SMILES): CCOC(=O)C(NC(=O)c1ccco1)(Nc1nc2ccc(OCC)cc2s1)C(F)(F)F (centres undefined)
- TGI [1]: > 100 µM
- TGI [2]: > 100 µM
- TGI [3]: 68.4 µM
- TGI [4]: 98.3 µM
- TGI [5]: > 100 µM
- TGI [6]: > 100 µM
- TGI [7]: > 100 µM
- TGI [8]: > 100 µM

Structure (SMILES): CCOC(=O)C1=NN(c2ccc(C)cc2)C2=CC(C)=NN(C)C(=S)N21
- TGI [1]: > 100 µM
- TGI [2]: > 100 µM
- TGI [4]: > 100 µM
- TGI [5]: > 100 µM
- TGI [6]: > 100 µM
- TGI [7]: > 100 µM
- TGI [8]: > 100 µM

Structure (SMILES): COc1ccc2c(c1)[nH]c1c(/C=C/c3ccccc3)nccc12
- TGI [1]: 37.2 µM
- TGI [2]: 35.9 µM
- TGI [3]: 42.2 µM
- TGI [4]: 41.2 µM
- TGI [5]: 33.7 µM
- TGI [6]: 36.7 µM
- TGI [7]: 42.2 µM
- TGI [8]: 51.8 µM

Structure (SMILES): CCn1c(-c2ccc(N=NNc3ccc(-c4n[nH]c(=S)n4CC)cc3)cc2)n[nH]c1=S
- TGI [1]: > 100 µM
- TGI [2]: 6.26 µM
- TGI [3]: 37.2 µM
- TGI [4]: 5.93 µM
- TGI [6]: 17.2 µM
- TGI [7]: 6.96 µM
- TGI [8]: 8.17 µM

Structure (SMILES): [N-]=[N+]=CC(=O)c1ccccc1C#CCCc1ccccc1
- TGI [2]: 89.2 µM
- TGI [9]: 23.6 µM
- TGI [4]: > 100 µM
- TGI [10]: > 100 µM
- TGI [5]: > 100 µM
- TGI [11]: 62.7 µM
- TGI [7]: > 100 µM
- TGI [12]: > 100 µM

Structure (SMILES): CCCCCCCCC/C=C/C=C/C(=O)NCC(=O)NC1C(O)C(O)C(Nc2ncnc3nc[nH]c23)OC1C(O)CO (centres undefined)
- GI50 [2]: 0.0247 µM
- TGI [9]: > 100 µM
- TGI [3]: 0.176 µM and 0.256 µM
- GI50 [4]: 0.0013 µM
- TGI [4]: 0.608 µM
- GI50 [5]: 0.00278 µM
- TGI [5]: 1.23 µM and 0.321 µM
- GI50 [6]: 0.00558 µM
- TGI [6]: 0.671 µM
- TGI [11]: 0.0186 µM and 0.126 µM
- GI50 [7]: 0.00555 µM
- TGI [7]: 0.077 µM
- GI50 [12]: 0.896 µM
- GI50 [8]: 0.00477 µM

Structure (SMILES): NC(=O)c1c(NC(=O)c2ccccn2)sc2c1CCC(=O)C2
- GI50 [4]: 3.26 µM
- TGI [4]: > 100 µM
- GI50 [5]: > 100 µM
- TGI [5]: > 100 µM
- GI50 [6]: 3.49 µM
- TGI [6]: > 100 µM
- GI50 [7]: 3.45 µM
- TGI [7]: > 100 µM
- GI50 [8]: > 100 µM
- TGI [8]: > 100 µM

Structure (SMILES): Nc1nc(SCCc2ccccc2)nc2nc3c(c(-c4ccccc4)c12)CCCC3
- TGI [1]: > 100 µM
- TGI [2]: > 100 µM
- TGI [4]: > 100 µM
- TGI [5]: > 100 µM
- TGI [6]: > 100 µM
- TGI [7]: > 100 µM
- TGI [8]: > 100 µM

Structure (SMILES): NCCSC(c1ccccc1)c1ccccc1
- TGI [1]: 37.3 µM
- TGI [2]: > 100 µM
- TGI [3]: 32.8 µM
- TGI [4]: 35.6 µM
- TGI [5]: 29.3 µM
- TGI [6]: > 100 µM
- TGI [7]: 44 µM
- TGI [8]: 93.5 µM

Structure (SMILES): C(=N\NC1=NCCN1)/c1ccc(-c2cn3cc(/C=N/NC4=NCCN4)ccc3n2)cc1
- TGI [1]: 34.6 µM
- TGI [2]: > 100 µM
- TGI [3]: > 66.4 µM
- TGI [4]: > 100 µM
- TGI [5]: > 45.8 µM
- TGI [6]: > 66.1 µM
- TGI [7]: > 55 µM
- TGI [8]: 37.7 µM

Structure (SMILES): O=C(C[n+]1ccc2ccccc2c1)c1ccc2ccc3ccccc3c2c1
- TGI [1]: 15.3 µM
- TGI [2]: 17.6 µM
- TGI [3]: 18 µM
- TGI [4]: 11.5 µM
- TGI [5]: 5.85 µM
- TGI [6]: 19.9 µM
- TGI [7]: 19.8 µM
- TGI [8]: 21.3 µM

Structure (SMILES): CC(C)(C)c1cc(C2=NNC(c3ccccc3)C2)cc(C(C)(C)C)c1O (centres undefined)
- TGI [1]: 27.5 µM
- TGI [2]: 33.7 µM
- TGI [3]: 29.6 µM
- TGI [4]: 31.7 µM
- TGI [5]: 29.7 µM
- TGI [6]: 36 µM
- TGI [7]: 31.7 µM
- TGI [8]: 30.3 µM

Structure (SMILES): Clc1cc2c(cc1Cl)CC(NCCN1CCCC1)CC2 (centres undefined)
- TGI [1]: 30.3 µM
- TGI [2]: 30.9 µM
- TGI [3]: 26.3 µM
- TGI [4]: 32.3 µM
- TGI [5]: 31.2 µM
- TGI [6]: 29.7 µM
- TGI [7]: 31.1 µM
- TGI [8]: 27.8 µM

Structure (SMILES): Cc1nn(-c2ccccc2)c(C)c1/C=N/N=C1\SCC(=O)N1c1ccccc1
- TGI [1]: > 100 µM
- TGI [2]: 86.4 µM
- TGI [3]: 37.7 µM
- TGI [4]: 94.7 µM
- TGI [5]: 60.2 µM
- TGI [6]: > 100 µM
- TGI [7]: 55.1 µM
- TGI [8]: > 100 µM

Structure (SMILES): Nc1cccc(/C=C/C(=O)N2CCN(CCOC(c3ccccc3)c3ccccc3)CC2)c1
- TGI [1]: 29.1 µM
- TGI [2]: 35.5 µM
- TGI [3]: 30.3 µM
- TGI [4]: 30.7 µM
- TGI [5]: 30.6 µM
- TGI [6]: 35 µM
- TGI [7]: 35.6 µM
- TGI [8]: 28.5 µM

Structure (SMILES): C[C@H](CCC(=O)O)[C@H]1CC[C@@]2(C)[C@@H]3C(=O)C[C@H]4C(C)(C)[C@@H](O)CC[C@]4(C)[C@H]3C(=O)C[C@]12C
- TGI [1]: > 100 µM
- TGI [2]: > 100 µM
- TGI [3]: > 100 µM
- TGI [4]: > 100 µM
- TGI [5]: > 100 µM
- TGI [6]: > 100 µM
- TGI [7]: > 100 µM
- TGI [8]: > 100 µM

Structure (SMILES): CCC1CN(C(=O)c2ccccc2)C(Cc2c[nH]c3ccccc23)C(=O)C1CC(=O)OC (centres undefined)
- TGI [2]: > 100 µM
- TGI [4]: > 100 µM
- TGI [5]: > 100 µM
- TGI [6]: > 100 µM
- TGI [7]: > 100 µM
- TGI [8]: > 100 µM

Structure (SMILES): CCC(C)C1=C(OC(C)=O)[N+]2([O-])Oc3ccc(-c4c(OC(C)=O)c(OC(C)=O)c(-c5ccc(OC(C)=O)cc5)c(OC(C)=O)c4OC(C)=O)cc3OC2(C(C)CC)C(=O)N1OC(C)=O (centres undefined)
- TGI [1]: > 50 µM
- TGI [2]: > 50 µM
- TGI [3]: 24 µM
- TGI [4]: > 50 µM
- TGI [5]: > 50 µM
- TGI [6]: 37.6 µM
- TGI [7]: > 50 µM
- TGI [8]: > 50 µM
